Values of other authors in patent US20130195986A1, “New Particles of Tetracyclines and Protecting Agent” (HOVIONE INTER LTD, priority 2010, published 2013).

Test system: staining of the teeth and bones and pigmentation of the thyroid gland
Conditions: rats; simultaneous administration of ascorbic acid (vitamin C) with minocycline

O=C1O[C@H]([C@@H](O)CO)C(O)=C1O [ascorbic acid]
staining of the teeth and bones and pigmentation of the thyroid gland: prevented staining of the teeth and bones and pigmentation of the thyroid gland
